According to article PMC10787358 (Science translational medicine, 2023):
pIC50: −log10 of the molar value. “Also recorded” adds a separate entry of the source. Residues, ends and D or L forms follow the SMILES beside them. *: point of attachment. Cbz = O=C(OCc1ccccc1)*

Tests used:
SARS-CoV-2 WT [1] = experiment: TCID50 assay, authentic SARS-CoV-2 WT in pretreated Calu-3 cells; assay type: cell-based; conditions: Calu-3 cells pretreated 48 h, MOI 0.01, TCID50 over time
hCoV-NL63 = experiment: Cytopathic effect; assay type: cell-based; conditions: CPE assay; for inhibition of hCoV-NL63 infection: ACE2-dependent coronavirus
hCoV-OC43 [2] = experiment: Cytopathic effect; assay type: cell-based; conditions: CPE assay, ACE2-independent strain
hCoV-OC43 [3] = experiment: RT-qPCR of hCoV-OC43 in Huh7 cells; assay type: cell-based; conditions: Huh7 cells preinfected MOI 2 for 24 h, ML364 4 or 10 μM for 48 h
ACE2 protein = experiment: Immunoblot of ACE2 protein abundance in cell lines; assay type: cell-based, human; conditions: for reduction of ACE2 protein abundance: Calu-3, HepG2 and H1650 cells, 48 h
USP2 = USP2 (Homo sapiens, UniProt O75604); experiment: In vitro USP2 activity assay; assay type: biochemical
SARS-CoV-2 PLpro [4] = target: SARS-CoV-2 PLpro (Severe acute respiratory syndrome coronavirus 2, UniProt P0DTD1); experiment: SARS-CoV-2 PLpro enzymatic activity assay; assay type: biochemical; conditions: in vitro
MERS-CoV pseudotype = assay type: cell-based
pseudotyped SARS-CoV-2 = assay type: cell-based; conditions: for pseudotype entry of SARS-CoV-2 after 48 h pretreatment: ML364 5 μM, UDCA plus ZGG 10 μM, Calu-3, HepG2, H1650
[5] = system: ACE2-dependent bat sarbecoviruses; assay type: cell-based
C57BL/6 mice = experiment: 2-week tolerability study in male C57BL/6 mice; assay type: in vivo, mouse
SARS-CoV-2 WT [6] = assay type: in vivo, K18-hACE2 transgenic mice; conditions: 50 mg/kg daily
SARS-CoV-2 = assay type: in vivo, K18-hACE2 transgenic mice
cyclin D1 / cell cycle = experiment: TMT-based quantitative proteomic analysis and cell cycle analysis; design: species or system human
SARS-CoV-2 PLpro [7] = experiment: PLpro-dependent ACE2 deubiquitination and ACE2 abundance in cells; assay type: cell-based
[8] = system: SARS-CoV-2 Omicron BA.2 sublineage; design: species or system K18-hACE2 transgenic mice; conditions: mouse, in vivo
SARS-CoV-2 WT [9] = experiment: TCID50 assay, SARS-CoV-2 WT in NHBE cells; assay type: cell-based; conditions: preinfected MOI 0.01 for 1 h, 10 μM, 48 h
SARS-CoV PLpro = conditions: cited from earlier work
[10] = 50 mg/kg once a day or 35 mg/kg twice a day, 2 weeks

Sequence of USP2 (O75604 whole entry): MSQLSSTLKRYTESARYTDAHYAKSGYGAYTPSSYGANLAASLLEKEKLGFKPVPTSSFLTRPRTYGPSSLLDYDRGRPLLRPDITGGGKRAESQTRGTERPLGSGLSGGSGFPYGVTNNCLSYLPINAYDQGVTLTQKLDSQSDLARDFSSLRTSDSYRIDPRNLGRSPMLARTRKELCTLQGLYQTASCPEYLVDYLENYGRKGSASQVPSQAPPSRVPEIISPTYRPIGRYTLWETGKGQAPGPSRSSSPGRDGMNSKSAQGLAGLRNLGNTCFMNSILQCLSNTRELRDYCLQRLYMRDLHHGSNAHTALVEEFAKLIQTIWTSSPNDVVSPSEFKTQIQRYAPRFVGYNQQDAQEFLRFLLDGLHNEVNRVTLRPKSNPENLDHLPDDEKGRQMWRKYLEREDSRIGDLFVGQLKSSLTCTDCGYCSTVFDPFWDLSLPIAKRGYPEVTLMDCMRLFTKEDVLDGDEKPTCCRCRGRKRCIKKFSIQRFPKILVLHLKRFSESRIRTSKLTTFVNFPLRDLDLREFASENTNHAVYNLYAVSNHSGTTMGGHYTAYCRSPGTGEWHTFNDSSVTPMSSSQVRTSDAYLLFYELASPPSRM

Cc1ccc(S(=O)(=O)Nc2cc(C(F)(F)F)ccc2C(=O)Nc2nc(-c3ccccc3)cs2)cc1 [ML364]
viral replication of SARS-CoV-2 WT (SARS-CoV-2 WT [1]): obvious reduction | inhibition of hCoV-NL63 infection (hCoV-NL63): effective | pIC50 (hCoV-NL63; read-out: IC50 against hCoV-NL63): ~6.74 | inhibition of hCoV-OC43 infection (hCoV-OC43 [2]): limited or no activity | activity against hCoV-OC43 (hCoV-OC43 [3]): did not observe any activity | reduction of ACE2 protein abundance (ACE2 protein): reductions in ACE2 protein in all three cell lines | ACE2 protein abundance decrease (ACE2 protein; HepG2, 10 μM, within 12 hours of treatment): 50% | inhibition of USP2 activity (USP2): inhibited USP2 activity | inhibition of SARS-CoV-2 PLpro (SARS-CoV-2 PLpro [4]): inhibitory effects | entry of MERS-CoV pseudotype (MERS-CoV pseudotype): did not prevent the entry | SARS-CoV-2 pseudovirus entry into cells (pseudotyped SARS-CoV-2; HepG2, ML364 5 μM): obvious reduction | pseudotype entry of SARS-CoV-2 after 48 h pretreatment (pseudotyped SARS-CoV-2): prevented the pseudotype entry | pseudotype entry of ACE2-dependent bat sarbecoviruses [5]: promising activity | clinical signs (C57BL/6 mice; [10]): healthy without any clinical signs | plasma angiotensin-(1-7) concentration (C57BL/6 mice; [10]): did not lead to any noticeable reduction | ACE2 protein abundance in mouse tissues (C57BL/6 mice; pancreas, small intestine and lung of C57BL/6 mice): reduced abundance of ACE2 protein | ACE2 protein abundance in the lungs (SARS-CoV-2 WT [6]): significantly (P = 0.01) reduced | viral loads in the lungs (SARS-CoV-2 WT [6]; 4 days before 6-day challenge): significant (P = 3.6 × 10^−6) decrease | lung pathology (H&E) (SARS-CoV-2 WT [6]; versus vehicle): reduction in overall lung pathology | viral titers and SARS-CoV-2 E gene in lungs and small intestines (SARS-CoV-2; administration 6 hours after infection): decrease in viral titers | lung pathology (SARS-CoV-2; administration 6 hours after infection, versus vehicle): improved lung pathology | cell cycle effect (cyclin D1 / cell cycle): primarily cell cycle arrest | cyclin D1 protein (TMT) (cyclin D1 / cell cycle; TMT-based proteomics): significant (P = 3.3 × 10^−6) decrease | time of peak plasma concentration (single intraperitoneal dose, male C57BL/6 mice): 30 min | cytotoxicity by LDH release (HepG2 and Calu-3 cells): minimal cytotoxicity

Cc1ccc(N)cc1C(=O)N[C@H](C)c1cccc2ccccc12 [GRL0617]
activity toward USP2 (USP2; even at 100 μM): no obvious activity | infection-induced reduction of ACE2 (SARS-CoV-2 PLpro [7]): failed to prevent the infection-induced reduction of ACE2 | PLpro-induced ACE2 deubiquitination (SARS-CoV-2 PLpro [7]; in cells): diminished PLpro-induced ACE2 deubiquitination

CC(C)C[C@@H](C=O)NC(=O)[C@H](CC(C)C)NC(=O)[C@H](CC(C)C)NC(=O)OCc1ccccc1 [MG132] (Cbz-Leu-Leu-Leu-aldehyde)
ACE2 protein accumulation (ACE2 protein; HepG2 cells with cycloheximide): noticeable ACE2 protein accumulation

CCC(CC)COC(=O)[C@H](C)N[P@](=O)(OC[C@H]1O[C@@](C#N)(c2ccc3c(N)ncnn23)[C@H](O)[C@@H]1O)Oc1ccccc1 [remdesivir]
inhibition of hCoV-NL63 infection (hCoV-NL63): active | inhibition of hCoV-OC43 infection (hCoV-OC43 [2]): active

Cc1ccc(S(=O)(=O)Nc2ccc(C(F)(F)F)cc2C(=O)Nc2nc(-c3ccc(Br)cc3)cs2)cc1 [MS102]
inhibition of hCoV-NL63 infection (hCoV-NL63): effective | inhibition of hCoV-OC43 infection (hCoV-OC43 [2]): limited or no activity | inhibition of USP2 activity (USP2): slightly enhanced activity | entry of ACE2-dependent pseudotypes compared with ML364 (pseudotyped SARS-CoV-2; HepG2, 5 μM, 24 h pretreatment): enhanced activity | therapeutic efficacy (TCID50, lung pathology) compared with ML364 (SARS-CoV-2; mouse, in vivo): enhanced efficacy compared with ML364 | survival extension versus vehicle-treated control [8]: 3 days | blocking infection of NHBE cells compared with ML364 (SARS-CoV-2 WT [9]): improved efficacy | peak plasma concentration relative to ML364 (C57BL/6 mice): approximately threefold | plasma concentration 24 hours after administration relative to ML364 (C57BL/6 mice): approximately 2500 times | oral bioavailability (male C57BL/6 mice, p.o. 50 mg/kg, i.v. 5 mg/kg): ~100% | cytotoxicity by LDH release (HepG2 and Calu-3 cells): minimal cytotoxicity

C[C@H](CCC(=O)O)[C@H]1CC[C@H]2[C@@H]3[C@@H](O)C[C@@H]4C[C@H](O)CC[C@]4(C)[C@H]3CC[C@]12C [UDCA, ursodeoxycholic acid]
inhibition of hCoV-NL63 infection (hCoV-NL63): no inhibitory activity | inhibition of hCoV-OC43 infection (hCoV-OC43 [2]): no inhibitory activity | reduction of ACE2 protein abundance (ACE2 protein): only mildly reduced ACE2 protein | pseudotype entry of SARS-CoV-2 after 48 h pretreatment (pseudotyped SARS-CoV-2): only showed mild effects; also recorded: mild effect

C/C=C1\C(=O)C[C@H]2[C@@H]3CCC4=CC(=O)CC[C@]4(C)[C@H]3CC[C@]12C [ZGG, z-guggulsterone]
pseudotype entry of SARS-CoV-2 after 48 h pretreatment (pseudotyped SARS-CoV-2): only showed mild effects

S=c1nc[nH]c2nc[nH]c12 [6MP]
SARS-CoV PLpro protease activity (SARS-CoV PLpro): inhibit

CC(O)c1cc(C(=O)N[C@@H](C)Cn2ccc(-c3ccc(C#N)c(Cl)c3)n2)[nH]n1 (some centres unmarked) [ODM-201]
reduction of ACE2 protein abundance (ACE2 protein): mild efficacy

Nc1nc2[nH]cnc2c(=S)[nH]1 [6TG]
SARS-CoV PLpro protease activity (SARS-CoV PLpro): inhibit
